Results on 30 molecules are retold here after patent US10647718B2, “Compounds and use thereof in the expansion of hematopoietic stem cells and/or hematopoietic progenitor cells” (UNIVERSITÉ DE MONTRÉAL, priority 2014, dated 2020).

Some results are limits rather than exact numbers.

The test system of the first assay is CD34+CD45RA− cell. The experiment in a line: Hematopoietic stem cell expansion assay (CD34+CD45RA− cell count versus DMSO vehicle cultures). The assay is classed as cell-based. The note with it: Homo sapiens, concentration that results in a 50% increase in CD34+CD45RA− cell count compared to vehicle cultures (DMSO), Table 1, pyridopyrrolopyrimidine series, read-out: Biological data EC50. As for the experimental part:
As used herein, the term “EC50” is intended to mean the concentration that results in a 50% increase in CD34+CD45RA− cell count compared to vehicle cultures (DMSO).
Screening Assay: screening assays were conducted as described in the inventors' previous patent application, WO 2013/110198.
The following biological assays were used to assess the effect of the compounds of the invention on hematopoietic stem cell expansion The results are illustrated in FIGS. 1 to 6. Culture medium: The culture medium used consisted of serum-free medium supplemented with the following recombinant cytokines: interleukin-6, thrombopoietin, Flt-3 ligand, and stem cell factor, each at a final concentration of 100 ng/ml, in the presence of vehicle (DMSO), positive control (SR1), or compound of the invention or a combination of compounds. Cell Culture: CD34+ cell purity of initial harvests was higher than 90%, as determined by flow cytometry. The CD34+ CD45RA− subpopulation reached purity levels higher than 70%. Cells were plated at 40,000 cells/ml and incubated for 7 to 12-days at 37° C. in 5% CO2. For long term cultures, 200,000 CD34+cells/ml from mobilized PB were plated with serum free media supplemented with interleukin-6, thrombopoietin, Flt3 ligand, and stem cell factor, each at a final concentration of 100 ng/ml, in the presence of vehicle (DMSO), positive control, or a compound of the invention at 500 nM.
As to `COC(=O)c1cnc2c(c1)[nH]c1nc(Cc3ccccc3)nc(NCCCN3CCCCC3)c12` [Compound 1, methyl 2-benzyl-4-((3-(piperidin-1-yl)propyl)amino)-9H-pyrido[2′,3′:4,5]pyrrolo[2,3-d]pyrimidine-7-carboxylate], the EC50 was 250 to 500 nM.
The same measure, in the same setting: with `COC(=O)c1cnc2c(c1)[nH]c1nc(Cc3ccsc3)nc(NCCCN3CCCCC3)c12` [Compound 2, methyl 4-((3-(piperidin-1-yl)propyl)amino)-2-(thiophen-3-ylmethyl)-9H-pyrido[2′,3′:4,5]pyrrolo[2,3-d]pyrimidine-7-carboxylate] the figure was 250 to 500 nM; with `COC(=O)c1cnc2c(c1)[nH]c1nc(Cc3ccsc3)nc(SCCCN3CCCCC3)c12` [Compound 3, methyl 4-((3-(piperidin-1-yl)propyl)thio)-2-(thiophen-3-ylmethyl)-9H-pyrido[2′,3′:4,5]pyrrolo[2,3-d]pyrimidine-7-carboxylate], 500 to 1000 nM.
For `COC(=O)c1cnc2c(c1)[nH]c1nc(Cc3cccc(OC)c3)nc(NCCCN3CCCCC3C)c12` (stereo not drawn) [Compound 4, methyl 2-(3-methoxybenzyl)-4-((3-(2-methylpiperidin-1-yl)propyl)amino)-9H-pyrido[2′,3′:4,5]pyrrolo[2,3-d]pyrimidine-7-carboxylate], the EC50 lay in the range of 250 to 500 nM.
With `CCN(CC)CCNc1nc(Cc2cccc(OC)c2)nc2[nH]c3cc(C(=O)OC)cnc3c12` [Compound 5, methyl 4-((2-(diethylamino)ethyl)amino)-2-(3-methoxybenzyl)-9H-pyrido[2′,3′:4,5]pyrrolo[2,3-d]pyrimidine-7-carboxylate], the EC50 is 500 to 1000 nM.
The same measure, in the same setting: with `COC(=O)c1cnc2c(c1)[nH]c1nc(Cc3ccccc3)nc(N(C)CCCN3CCCCC3)c12` [Compound 6, methyl 2-benzyl-4-(methyl(3-(piperidin-1-yl)propyl)amino)-9H-pyrido[2′,3′:4,5]pyrrolo[2,3-d]pyrimidine-7-carboxylate] the figure was under 100 nM; with `COC(=O)c1cnc2c(c1)[nH]c1nc(Cc3ccccc3C)nc(NCCCN3CCCCC3)c12` [Compound 7, methyl 2-(2-methylbenzyl)-4-((3-(piperidin-1-yl)propyl)amino)-9H-pyrido[2′,3′:4,5]pyrrolo[2,3-d]pyrimidine-7-carboxylate], 250 to 500 nM; with `COC(=O)c1cnc2c(c1)[nH]c1nc(Cc3ccccc3C)nc(NCCCN3CCCC3)c12` [Compound 8, methyl 2-(2-methylbenzyl)-4-((3-(pyrrolidin-1-yl)propyl)amino)-9H-pyrido[2′,3′:4,5]pyrrolo[2,3-d]pyrimidine-7-carboxylate], 250 to 500 nM.
The same measure, in the same setting: with `CNCCCNc1nc(Cc2ccccc2C)nc2[nH]c3cc(C(=O)OC)cnc3c12` [Compound 9, methyl 4-((3-(methylamino)propyl)amino)-2-(2-methylbenzyl)-9H-pyrido[2′,3′:4,5]pyrrolo[2,3-d]pyrimidine-7-carboxylate] the figure was 500 to 1000 nM.
For the molecule `Cn1nnc(-c2cnc3c(c2)[nH]c2nc(Cc4ccccc4)nc(N[C@H]4CC[C@H](N)CC4)c23)n1` [Compound 10, (1R,4R)—N^1-(2-benzyl-7-(2-methyl-2H-tetrazol-5-yl)-9H-pyrido[2′,3′:4,5]pyrrolo[2,3-d]pyrimidin-4-yl)cyclohexane-1,4-diamine], the EC50 lay within 250 to 500 nM.
The same measure, in the same setting: then `COC(=O)c1cnc2c(c1)[nH]c1nc(Cc3cccc(F)c3)nc(NCCCN3CCCCC3)c12` [Compound 11, methyl 2-(3-fluorobenzyl)-4-((3-(piperidin-1-yl)propyl)amino)-9H-pyrido[2′,3′:4,5]pyrrolo[2,3-d]pyrimidine-7-carboxylate], with over 1000 nM.
The same measure, in the same setting: with `COC(=O)c1cnc2c(c1)[nH]c1nc(Cc3cccc(F)c3)nc(NCCCN(C)CCCN)c12` [Compound 12, methyl 4-((3-((3-aminopropyl)(methyl)amino)propyl)amino)-2-(3-fluorobenzyl)-9H-pyrido[2′,3′:4,5]pyrrolo[2,3-d]pyrimidine-7-carboxylate] the figure was 250 to 500 nM.
The same measure, in the same setting: then `CNCCCNc1nc(Cc2cccc(F)c2)nc2[nH]c3cc(C(=O)OC)cnc3c12` [Compound 13], with over 1000 nM; and `COC(=O)c1cnc2c(c1)[nH]c1nc(Cc3ccccc3)nc(NCC(C)CN(C)C)c12` (stereo not drawn) [Compound 14, methyl 2-benzyl-4-((3-(dimethylamino)-2-methylpropyl)amino)-9H-pyrido[2′,3′:4,5]pyrrolo[2,3-d]pyrimidine-7-carboxylate], with 500 to 1000 nM.
`COC(=O)c1cnc2c(c1)[nH]c1nc(Cc3ccccc3)nc(N3CCC(N(C)C)CC3)c12` [Compound 15, methyl 2-benzyl-4-(4-(dimethylamino)piperidin-1-yl)-9H-pyrido[2′,3′:4,5]pyrrolo[2,3-d]pyrimidine-7-carboxylate]: the EC50 lay in the range of 100 to 250 nM.

Still in this assay, the particulars now being: Homo sapiens, concentration that results in a 50% increase in CD34+CD45RA− cell count compared to vehicle cultures (DMSO), Table 1′, pyrido[4,3-b]indole series, read-out: Biological data EC50.
On to `COC(=O)c1ccc2c(c1)[nH]c1ccnc(NCCCN3CCCCC3)c12` [1′, methyl 1-((3-(piperidin-1-yl)propyl)amino)-5H-pyrido[4,3-b]indole-7-carboxylate], for which the EC50 is over 1000 nM.
Same read-out and setting: then `COC(=O)c1ccc2c(c1)[nH]c1cc(Cc3ccccc3)nc(NCCCN3CCCCC3)c12` [2′, methyl 3-benzyl-1-((3-(piperidin-1-yl)propyl)amino)-5H-pyrido[4,3-b]indole-7-carboxylate], with under 100 nM.
Consider `COC(=O)c1ccc2c(c1)[nH]c1cc(Cc3ccccc3)nc(NCCN3CCCC3)c12` [3′, methyl 3-benzyl-1-((2-(pyrrolidin-1-yl)ethyl)amino)-5H-pyrido[4,3-b]indole-7-carboxylate], for which the EC50 is under 100 nM.
Still for that read-out and setting: then `COC(=O)c1ccc2c(c1)[nH]c1cc(Cc3ccccc3)nc(N(C)CCCN(C)C)c12` [4′, methyl 3-benzyl-1-((3-(dimethylamino)propyl)(methyl)amino)-5H-pyrido[4,3-b]indole-7-carboxylate], with under 100 nM; and `Cn1nnc(-c2ccc3c(c2)[nH]c2cc(Cc4ccccc4)nc(NCCCN4CCCCC4)c23)n1` [5′, 3-benzyl-7-(2-methyl-2H-tetrazol-5-yl)-N-(3-(piperidin-1-yl)propyl)-5H-pyrido[4,3-b]indol-1-amine], with 100 to 250 nM.
The same measure, in the same setting: then `COC(=O)c1ccc2c(c1)[nH]c1cc(Cc3cccc(OC)c3)nc(NCCCCN3CCCC3)c12` [6′, methyl 3-(3-methoxybenzyl)-1-((4-(pyrrolidin-1-yl)butyl)amino)-5H-pyrido[4,3-b]indole-7-carboxylate], with under 100 nM; and `COC(=O)c1ccc2c(c1)[nH]c1cc(Cc3cccc(O)c3)nc(NCCCCN3CCCC3)c12` [7′, methyl 3-(3-hydroxybenzyl)-1-((4-(pyrrolidin-1-yl)butyl)amino)-5H-pyrido[4,3-b]indole-7-carboxylate], with under 100 nM.
Turning to `COC(=O)c1ccc2c(c1)[nH]c1cc(Cc3ccsc3)nc(NCCN(C)CCNC(=O)OC(C)(C)C)c12` [8′, methyl 1-((2-((2-((tert-butoxycarbonyl)amino)ethyl)(methyl)amino)ethyl)amino)-3-(thiophen-3-ylmethyl)-5H-pyrido[4,3-b]indole-7-carboxylate], the EC50 is over 1000 nM.
On the same count and under the same terms, then `COC(=O)c1ccc2c(c1)[nH]c1cc(Cc3cccnc3)nc(NCCCN3CCOCC3)c12` [9′, methyl 1-((3-morpholinopropyl)amino)-3-(pyridin-3-ylmethyl)-5H-pyrido[4,3-b]indole-7-carboxylate], with 500 to 1000 nM; and `COC(=O)c1ccc2c(c1)[nH]c1cc(Cc3ccsc3)nc(NCCCN3CCCCC3)c12` [10′, methyl 1-((3-(piperidin-1-yl)propyl)amino)-3-(thiophen-3-ylmethyl)-5H-pyrido[4,3-b]indole-7-carboxylate], with 100 to 250 nM.
Still for that read-out and setting: with `COC(=O)c1ccc2c(c1)[nH]c1cc(Cc3cccnc3)nc(N3CCC(N4CCCC4)CC3)c12` [11′, methyl 3-(pyridin-3-ylmethyl)-1-(4-(pyrrolidin-1-yl)piperidin-1-yl)-5H-pyrido[4,3-b]indole-7-carboxylate] the figure was over 1000 nM.
Still for that read-out and setting: then `CNCCCN(C)c1nc(Cc2cccnc2)cc2[nH]c3cc(C(=O)OC)ccc3c12` [12′, methyl 1-(methyl(3-(methylamino)propyl)amino)-3-(pyridin-3-ylmethyl)-5H-pyrido[4,3-b]indole-7-carboxylate], with over 1000 nM; and `COC(=O)c1ccc2c(c1)[nH]c1cc(Cc3ccsc3)nc(N[C@H]3CC[C@H](N)CC3)c12` [13′, methyl 1-(((1r,4r)-4-aminocyclohexyl)amino)-3-(thiophen-3-ylmethyl)-5H-pyrido[4,3-b]indole-7-carboxylate], with 100 to 250 nM.
`COC(=O)c1ccc2c(c1)[nH]c1cc(Cc3ccsc3)nc(NCCN(C)CCN)c12` [14′, methyl 1-((2-((2-aminoethyl)(methyl)amino)ethyl)amino)-3-(thiophen-3-ylmethyl)-5H-pyrido[4,3-b]indole-7-carboxylate]: the EC50 is 250 to 500 nM.
In the case of `COC(=O)c1ccc2c(c1)[nH]c1cc(Cc3ccsc3)nc(NCCC[N+]3(CC(N)=O)CCCCC3)c12` [15′, 1-(2-amino-2-oxoethyl)-1-(3-((7-(methoxycarbonyl)-3-(thiophen-3-ylmethyl)-5H-pyrido[4,3-b]indol-1-yl)amino)propyl)piperidin-1-ium iodide], the EC50 is under 100 nM.
